The subject of data set [1] is HFD-Induced Obese Mice (C57BL/6). The note with it: mouse, in vivo.
Procedure: (§1) Four-week-old, male C57BL/6 mice were purchased from the BioLASCO Experimental Animal Center (Taiwan Co., Ltd., Taipei, Taiwan) and housed in a controlled atmosphere (25±1° C. at 50% relative humidity) with a 12 h light/12 h dark cycle. After 1 week of acclimation, animals were randomly distributed into 6 groups as follows: normal diet (ND, 15% energy from fat), high-fat diet (HFD, 50% energy from lard-based fat), and HFD supplemented with 0.01% garcinol (GAR group), 0.025% Forskolin (FOR group), 0.005% GAR+0.025% FOR (LMIX group), and 0.01% Gar+0.025% For (HMIX group) for 12 weeks. […] Animals had free access to food and water. Food consumption was monitored daily and the body weight was recorded weekly. At the end of the experiments, all animals were sacrificed by CO2 asphyxiation. Blood samples were collected from the heart for biochemical analysis. The liver, spleen, kidney, fat pads (perigonadal, retroperitoneal, and mesenteric fat), and fresh fecal pellets were immediately removed and stored at −80° C. until further analysis.
(§2) Liver and the perigonadal adipose tissue were dissected and fixed in 10% buffered formalin for at least 24 h, dehydrated with a sequence of ethanol solutions, and processed for embedding in paraffin. Sections of 4 μm in thickness were cut, deparaffinized, rehydrated, stained with hematoxylin and eosin (H&E), and subjected to photo microscopic observation. Adipocyte size was measured at 100× magnification and determined by Image J software (U. S. National Institutes of Health, Bethesda, Md., USA).
For data set [2], the system named is Gut Microbiota in HFD-Fed Mice. Nature of the data set: Gut microbiota classification by next generation sequencing (Example 4). Format: in vivo, mouse. On the procedure: Total DNA was extracted from fresh fecal samples by using the innuPREP Stool DNA kit (Analytik Jena AG, Jena, Germany) according to the manufacturer's instructions. According to the concentration, DNA was diluted to 1 ng μ L^−1 using sterile water. 6SrRNA/18SrRNA/ITS genes of distinct region (16SV4/16SV3/16SV3-V4/16SV4-V5, 18S V4/18S V9, ITS1/ITS2, Arc V4) were amplified using a specific primer (e.g. 16SV4: 515F-806R, 18S V4: 528F-706R, and 18S V9: 1380F-1510R) with a barcode. All PCR reactions were carried out using a Phusion® High-Fidelity PCR master mix (New England Biolabs, Ipswich, Mass., USA). The PCR products were mixed in ratios of equal density. Then, the mixed PCR products were purified using a Qiagen gel extraction kit (Qiagen, Hilden, Germany). Sequencing libraries were generated using the TruSeq® DNA PCR-free sample preparation kit (Illumina, San Diego, Calif., USA) following the manufacturer's recommendations, and index codes were added. The library quality was assessed using the Qubit@ 2.0 Fluorometer (Thermo Scientific) and Agilent Bioanalyzer 2100 system. Lastly, the library was sequenced using an Illumina HiSeq 2500 platform, and 250 bp paired-end reads were generated. The classification was based on the Greengenes database (https://greengenes.lbl.gov/).

For data set [3], the system named is HFD-Induced Obese Mice (C57BL/6). Nature of the data set: GAR, FOR, LMIX, HMIX in HFD-induced obese mice, 12 weeks (Example 4).
Procedure: as §1, §2
Setting [4] is: 0.01% GAR, 0.025% FOR, LMIX, HMIX.

The source of these data is US20200030388A1, “COMPOSITIONS FOR MODIFYING GUT MICROBIOTA” (priority 2017, published 2020).

SMILES strings stand for the structures. Several values for one entry are separate records, joined by “and”; a condition that tells them apart may be missing. Equal entries are not always repeated. Marks after values point to notes of the source that are not given here.

For the compound `C=C[C@@]1(C)CC(=O)[C@]2(O)[C@@]3(C)[C@@H](O)CCC(C)(C)[C@@H]3[C@H](O)[C@H](OC(C)=O)[C@@]2(C)O1` [FOR, Forskolin, reference compound], in data set [1], the Kidney is 0.4 ± 0.02^a g and the Spleen is recorded as 0.06 ± 0.01^a g. Also, in data set [2] (12 weeks (HFD group 43.0%)), the “abundance of Firmicutes” value is reported as 33.5%. The “abundance of Bacteroidetes” value in data set [2] (12 weeks (HFD group 50.2%)) is on record as 62.2%. The “OTUs difference between ND and HFD groups (Venn diagram)” value in data set [2] (12 weeks, FIG. 23A) is on record as 34 OTUs. Also, in data set [3] (setting [4]), the Final weight was 30.5 g and 30.5 ± 2.6^c g; the Weight gain is reported as 9.1 ± 1.8^c g. Moreover, in data set [3] (organ weight), the Liver was 1.5 ± 0.2^bc g.
